Experimental data published in US20230203098A1, “HUMAN TRANSFERRIN RECEPTOR BINDING PEPTIDE” (priority 2020, published 2023).
Where a SMILES comes first, the peptide text is derived from it. Bridges are numbered along the chain shown (N, C = ends). [ ]: non-standard residue; d: D form. The star is where a group is joined. X2 = O=C(O)c1cc(C(=O)*)ccc1-c1c2ccc(=O)cc-2oc2cc(O)ccc12; PEG12 = NCCOCCOCCOCCOCCOCCOCCOCCOCCOCCOCCOCCOCCC(=O)O

Each molecule was assayed against transferrin receptor (hTfR) (Homo sapiens, UniProt P02786) (assay: Intermolecular interaction evaluation test between transferrin receptor (hTfR) and peptide by surface plasmon resonance (SPR)). Conditions: SPR; linker and payload (FITC, VivoTag) conjugates; read-out: KD.
Format: binding
Procedure, shortened: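 Receptor was Ni-captured and EDC/NHS-fixed on an NTA chip; running buffer HEPES pH 8.0 with NaCl, Tween 20, BSA and 1.0% DMSO.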

Sequence of transferrin receptor (hTfR) (P02786 whole entry): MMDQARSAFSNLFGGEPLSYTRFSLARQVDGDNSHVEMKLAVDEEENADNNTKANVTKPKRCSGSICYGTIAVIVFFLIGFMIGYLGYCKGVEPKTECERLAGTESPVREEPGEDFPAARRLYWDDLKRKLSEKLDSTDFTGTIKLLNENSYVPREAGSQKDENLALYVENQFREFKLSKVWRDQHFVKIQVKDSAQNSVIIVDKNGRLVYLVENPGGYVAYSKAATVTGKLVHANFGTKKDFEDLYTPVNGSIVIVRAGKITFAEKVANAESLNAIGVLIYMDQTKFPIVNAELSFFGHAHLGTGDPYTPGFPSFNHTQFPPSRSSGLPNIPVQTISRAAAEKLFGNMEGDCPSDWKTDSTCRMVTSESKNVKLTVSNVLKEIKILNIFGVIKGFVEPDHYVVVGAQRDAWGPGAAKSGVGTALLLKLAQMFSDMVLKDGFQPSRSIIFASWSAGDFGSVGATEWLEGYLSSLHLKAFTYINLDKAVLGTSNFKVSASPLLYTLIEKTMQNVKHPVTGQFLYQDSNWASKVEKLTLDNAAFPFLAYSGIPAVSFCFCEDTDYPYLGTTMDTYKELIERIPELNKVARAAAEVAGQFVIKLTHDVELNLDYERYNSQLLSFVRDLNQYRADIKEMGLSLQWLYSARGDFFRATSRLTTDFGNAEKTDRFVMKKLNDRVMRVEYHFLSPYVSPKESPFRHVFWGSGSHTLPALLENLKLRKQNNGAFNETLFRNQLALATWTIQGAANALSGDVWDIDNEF

Kd, 1 to 100 nM:
CC[C@H](C)[C@@H]1NC(=O)[C@H](Cc2ccc(O)cc2)NC(=O)[C@H](Cc2ccc(O)cc2)NC(=O)[C@H](CC(N)=O)NC(=O)[C@H](Cc2c[nH]c3ccccc23)NC(=O)[C@H](C(C)C)NC(=O)[C@H](Cc2ccccc2)NC(=O)[C@H](C(C)C)NC(=O)[C@H](C)NC(=O)[C@H](CO)NC(=O)[C@H](C)NC(=O)CSC[C@@H](C(=O)NCCOCCOCCOCCOCCOCCOCCOCCOCCOCCOCCOCCOCCC(=O)N[C@@H](CCCCNC(=O)c2ccc(-c3c4ccc(=O)cc-4oc4cc(O)ccc34)c(C(=O)O)c2)C(N)=O)NC(=O)[C@H](C)NC(=O)[C@H](Cc2c[nH]c3ccccc23)NC(=O)[C@H](CCCNC(=N)N)NC(=O)[C@H](CC(N)=O)NC(=O)[C@H]([C@@H](C)CC)NC1=O [compound 155] ({CH2CO}-ASAVFVWNYYIINRWAC[PEG12]K(X2)-NH2; thioether N-17), CC[C@H](C)[C@@H]1NC(=O)[C@H](Cc2ccc(O)cc2)NC(=O)[C@H](Cc2ccc(O)cc2)NC(=O)[C@H](CC(N)=O)NC(=O)[C@H](Cc2c[nH]c3ccccc23)NC(=O)[C@H](C(C)C)NC(=O)[C@H](Cc2c[nH]c3ccccc23)NC(=O)[C@H](C(C)C)NC(=O)[C@H]([C@@H](C)O)NC(=O)[C@H](CCCNC(=N)N)NC(=O)[C@H](CO)NC(=O)[C@H](CC(N)=O)NC(=O)[C@H](C)NC(=O)CSC[C@@H](C(=O)NCCOCCOCCOCCOCCOCCOCCOCCOCCOCCOCCOCCOCCC(=O)N[C@@H](CCCCNC(=O)c2ccc(-c3c4ccc(=O)cc-4oc4cc(O)ccc34)c(C(=O)O)c2)C(N)=O)NC(=O)[C@H](CCCNC(=N)N)NC(=O)[C@H]([C@@H](C)O)NC(=O)[C@H](C(C)C)NC1=O [compound 157] ({CH2CO}-ANSRTVWVWNYYIVTRC[PEG12]K(X2)-NH2; thioether N-17), CC[C@H](C)[C@@H]1NC(=O)[C@H](Cc2ccc(O)cc2)NC(=O)[C@H](Cc2ccc(O)cc2)NC(=O)[C@H](CC(N)=O)NC(=O)[C@H](Cc2c[nH]c3ccccc23)NC(=O)[C@H](C(C)C)NC(=O)[C@H](Cc2ccccc2)NC(=O)[C@H](C(C)C)NC(=O)[C@H](C)NC(=O)CSC[C@@H](C(=O)NCCOCCOCCOCCOCCC(=O)N[C@@H](CNC(=O)c2ccc(-c3c4ccc(=O)cc-4oc4cc(O)ccc34)c(C(=O)O)c2)C(N)=O)NC(=O)[C@H](Cc2ccc(O)cc2)N(C)C(=O)[C@H](Cc2ccc(O)cc2)NC(=O)[C@H](CCCNC(=N)N)NC(=O)[C@H](CCCNC(=N)N)NC(=O)[C@H]([C@@H](C)CC)NC1=O [compound 159], CC[C@H](C)[C@@H]1NC(=O)[C@H](Cc2ccc(O)cc2)NC(=O)[C@H](Cc2ccc(O)cc2)NC(=O)[C@H](CC(N)=O)NC(=O)[C@H](Cc2c[nH]c3ccccc23)NC(=O)[C@H](C(C)C)NC(=O)[C@H](Cc2ccccc2)NC(=O)[C@H](C(C)C)NC(=O)[C@H](C)NC(=O)CSC[C@H](C(=O)NCCOCCOCCOCCOCCC(=O)N[C@@H](CNC(=O)c2ccc(-c3c4ccc(=O)cc-4oc4cc(O)ccc34)c(C(=O)O)c2)C(N)=O)NC(=O)[C@H](Cc2ccc(O)cc2)N(C)C(=O)[C@H](Cc2ccc(O)cc2)NC(=O)[C@H](CCCNC(=N)N)NC(=O)[C@H](CCCNC(=N)N)NC(=O)[C@H]([C@@H](C)CC)NC1=O [compound 160], CC[C@H](C)[C@@H]1NC(=O)[C@H](Cc2ccc(O)cc2)NC(=O)[C@H](Cc2ccc(O)cc2)NC(=O)[C@H](CC(N)=O)NC(=O)[C@H](Cc2c[nH]c3ccccc23)NC(=O)[C@H](C(C)C)NC(=O)[C@H](Cc2ccccc2)NC(=O)[C@H](C(C)C)NC(=O)[C@H](C)N(C)C(=O)CSC[C@@H](C(=O)NCCOCCOCCOCCOCCC(=O)N[C@@H](CNC(=O)c2ccc(-c3c4ccc(=O)cc-4oc4cc(O)ccc34)c(C(=O)O)c2)C(N)=O)NC(=O)[C@H](Cc2ccc(O)cc2)N(C)C(=O)[C@H](Cc2ccc(O)cc2)NC(=O)[C@H](CCCNC(=N)N)NC(=O)[C@H](CCCNC(=N)N)NC(=O)[C@H]([C@@H](C)CC)NC1=O [compound 161]
